Data published in patent US20250353864A1, “INDAZOLE CONTAINING MACROCYCLES AND THEIR USE” (BLOSSOMHILL THERAPEUTICS, INC., priority 2022, published 2025).

How the values were obtained:
Type in all cases: biochemical
[1] = molecular target: EGFR Δ746-750/C797S mutant (Homo sapiens (Human), UniProt P00533, C797S/DEL746-750); test: HotSpot radiometric kinase assay, EGFR Δ746-750/C797S mutant; details: 10 μM ATP
Protocol: (§1) Biochemical Assays for Inhibition of Wild-Type and Mutant EGFRs
(§2) Briefly, specific kinase/substrate pairs along with required cofactors were prepared in reaction buffer; 20 mM Hepes pH 7.5, 10 mM […], 1 mM EGTA, 0.02% Brij35, 0.02 mg/ml BSA, 0.1 mM Na3VO4, 2 mM DTT, 1% DMSO. Compounds were delivered into the reaction, followed […] later by addition of a mixture of ATP (Sigma, St. Louis MO) and ^33P ATP (Perkin Elmer, Waltham MA) to a final concentration of 10 μM. Reactions were carried out at room temperature for 120 min, followed by spotting of the reactions onto P81 ion exchange filter paper (Whatman Inc., Piscataway, NJ). Unbound phosphate was removed by extensive washing of filters in 0.75% phosphoric acid. […] IC50 values and curve fits were obtained using Prism (GraphPad Software).

EGFR Δ746-750 mutant = EGFR Δ746-750 mutant (Homo sapiens (Human), UniProt P00533, DEL746-750); test: HotSpot radiometric kinase assay, EGFR Δ746-750 mutant; details: 10 μM ATP
Protocol: as §1, §2

EGFR (D770_N771insNPG) = EGFR (D770_N771insNPG) (Homo sapiens (Human), UniProt P00533, INS770NPG); test: HotSpot radiometric kinase assay, EGFR (D770_N771insNPG); details: 10 μM ATP, read-out: EGFR (Δ770_N771insNPG) IC50
Protocol: as §1, §2

EGFR WT = EGFR WT (Homo sapiens (Human), UniProt P00533); test: HotSpot radiometric kinase assay (Reaction Biology), EGFR WT; details: 10 μM ATP
Protocol: as §1, §2

EGFR L858R mutant = EGFR L858R mutant (Homo sapiens (Human), UniProt P00533, L858R); test: HotSpot radiometric kinase assay, EGFR L858R mutant; details: 10 μM ATP
Protocol: as §1, §2

[2] = molecular target: EGFR L858R/T790M/C797S mutant (Homo sapiens (Human), UniProt P00533, C797S/L858R/T790M); test: HotSpot radiometric kinase assay, EGFR L858R/T790M/C797S mutant; details: 10 μM ATP
Protocol: as §1, §2

Chain of EGFR (D770_N771insNPG) (P00533 other isoform, or with tags, fused parts or gaps del 1-668/ins NPG behind 770 limits assumed): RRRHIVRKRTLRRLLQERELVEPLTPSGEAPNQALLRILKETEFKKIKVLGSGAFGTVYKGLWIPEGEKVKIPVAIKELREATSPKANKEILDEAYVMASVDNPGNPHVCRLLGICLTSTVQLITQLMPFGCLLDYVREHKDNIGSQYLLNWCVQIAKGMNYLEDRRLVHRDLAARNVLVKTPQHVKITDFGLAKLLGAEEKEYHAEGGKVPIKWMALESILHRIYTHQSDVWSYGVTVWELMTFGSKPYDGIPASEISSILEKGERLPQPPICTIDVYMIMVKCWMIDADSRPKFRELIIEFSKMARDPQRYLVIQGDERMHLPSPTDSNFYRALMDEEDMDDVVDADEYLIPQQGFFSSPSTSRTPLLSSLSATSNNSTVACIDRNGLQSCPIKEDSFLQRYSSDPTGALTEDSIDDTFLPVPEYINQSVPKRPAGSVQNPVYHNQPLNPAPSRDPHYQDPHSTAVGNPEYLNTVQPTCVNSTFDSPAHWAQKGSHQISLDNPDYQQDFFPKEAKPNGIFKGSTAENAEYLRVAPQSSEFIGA
Chain of EGFR WT (P00533 25-1210): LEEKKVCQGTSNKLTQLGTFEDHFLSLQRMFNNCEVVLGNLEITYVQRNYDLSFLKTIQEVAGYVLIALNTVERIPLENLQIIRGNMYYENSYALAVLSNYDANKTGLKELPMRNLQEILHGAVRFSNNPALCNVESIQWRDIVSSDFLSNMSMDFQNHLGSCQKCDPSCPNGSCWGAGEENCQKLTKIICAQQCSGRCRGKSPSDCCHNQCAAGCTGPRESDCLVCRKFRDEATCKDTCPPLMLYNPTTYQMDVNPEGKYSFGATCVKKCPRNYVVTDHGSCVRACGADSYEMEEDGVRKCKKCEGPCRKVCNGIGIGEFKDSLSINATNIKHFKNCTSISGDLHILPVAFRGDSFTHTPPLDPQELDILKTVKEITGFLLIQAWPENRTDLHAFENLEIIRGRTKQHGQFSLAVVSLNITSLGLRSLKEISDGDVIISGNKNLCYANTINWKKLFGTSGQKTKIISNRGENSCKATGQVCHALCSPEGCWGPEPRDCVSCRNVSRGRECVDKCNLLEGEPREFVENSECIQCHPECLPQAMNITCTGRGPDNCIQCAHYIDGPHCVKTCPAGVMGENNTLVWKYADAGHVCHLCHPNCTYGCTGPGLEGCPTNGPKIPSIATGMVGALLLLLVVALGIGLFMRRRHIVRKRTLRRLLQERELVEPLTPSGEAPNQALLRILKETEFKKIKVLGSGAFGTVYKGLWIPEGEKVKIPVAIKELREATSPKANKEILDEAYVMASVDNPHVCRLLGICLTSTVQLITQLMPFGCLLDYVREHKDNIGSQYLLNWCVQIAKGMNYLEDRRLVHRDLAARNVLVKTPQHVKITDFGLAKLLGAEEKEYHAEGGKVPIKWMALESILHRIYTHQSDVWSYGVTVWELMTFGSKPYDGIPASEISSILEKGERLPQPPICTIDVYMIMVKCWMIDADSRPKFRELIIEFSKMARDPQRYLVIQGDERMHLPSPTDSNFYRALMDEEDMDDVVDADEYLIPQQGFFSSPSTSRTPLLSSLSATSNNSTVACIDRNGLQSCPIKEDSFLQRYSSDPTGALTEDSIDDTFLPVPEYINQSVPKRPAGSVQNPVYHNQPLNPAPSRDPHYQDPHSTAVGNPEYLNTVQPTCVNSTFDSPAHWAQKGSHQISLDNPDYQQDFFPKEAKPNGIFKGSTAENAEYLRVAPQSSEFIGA
Chain of EGFR L858R mutant (P00533 25-1210 L858R): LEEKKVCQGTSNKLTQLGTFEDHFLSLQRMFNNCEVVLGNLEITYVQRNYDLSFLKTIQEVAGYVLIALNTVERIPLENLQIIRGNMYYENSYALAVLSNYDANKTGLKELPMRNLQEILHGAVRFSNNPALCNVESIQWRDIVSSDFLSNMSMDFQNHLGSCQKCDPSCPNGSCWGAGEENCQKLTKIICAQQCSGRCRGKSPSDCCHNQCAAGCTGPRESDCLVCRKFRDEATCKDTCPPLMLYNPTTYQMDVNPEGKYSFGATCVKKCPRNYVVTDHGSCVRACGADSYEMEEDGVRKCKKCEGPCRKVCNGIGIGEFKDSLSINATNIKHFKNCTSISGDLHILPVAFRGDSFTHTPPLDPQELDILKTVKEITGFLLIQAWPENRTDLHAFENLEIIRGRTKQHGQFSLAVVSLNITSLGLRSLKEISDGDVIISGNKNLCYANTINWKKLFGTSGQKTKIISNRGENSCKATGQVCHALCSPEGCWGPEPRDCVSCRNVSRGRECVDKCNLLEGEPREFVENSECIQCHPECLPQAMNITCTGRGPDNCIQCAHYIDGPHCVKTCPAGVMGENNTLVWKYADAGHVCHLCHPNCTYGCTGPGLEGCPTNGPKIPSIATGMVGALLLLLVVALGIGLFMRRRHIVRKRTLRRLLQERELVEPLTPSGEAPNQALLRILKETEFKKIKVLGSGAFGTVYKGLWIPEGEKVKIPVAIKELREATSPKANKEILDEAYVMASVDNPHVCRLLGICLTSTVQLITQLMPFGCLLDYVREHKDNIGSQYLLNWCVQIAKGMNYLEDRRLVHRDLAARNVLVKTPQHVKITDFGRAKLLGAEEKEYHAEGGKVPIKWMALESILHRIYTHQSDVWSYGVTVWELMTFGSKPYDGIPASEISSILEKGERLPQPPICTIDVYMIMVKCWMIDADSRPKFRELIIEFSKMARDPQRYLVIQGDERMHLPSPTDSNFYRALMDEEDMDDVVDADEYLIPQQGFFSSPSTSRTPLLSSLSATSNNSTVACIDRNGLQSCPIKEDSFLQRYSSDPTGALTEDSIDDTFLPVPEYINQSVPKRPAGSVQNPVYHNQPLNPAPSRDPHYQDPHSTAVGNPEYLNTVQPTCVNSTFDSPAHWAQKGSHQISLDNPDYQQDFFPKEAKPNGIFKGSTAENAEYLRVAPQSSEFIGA
Chain of EGFR L858R/T790M/C797S mutant (P00533 25-1210 T790M/C797S/L858R): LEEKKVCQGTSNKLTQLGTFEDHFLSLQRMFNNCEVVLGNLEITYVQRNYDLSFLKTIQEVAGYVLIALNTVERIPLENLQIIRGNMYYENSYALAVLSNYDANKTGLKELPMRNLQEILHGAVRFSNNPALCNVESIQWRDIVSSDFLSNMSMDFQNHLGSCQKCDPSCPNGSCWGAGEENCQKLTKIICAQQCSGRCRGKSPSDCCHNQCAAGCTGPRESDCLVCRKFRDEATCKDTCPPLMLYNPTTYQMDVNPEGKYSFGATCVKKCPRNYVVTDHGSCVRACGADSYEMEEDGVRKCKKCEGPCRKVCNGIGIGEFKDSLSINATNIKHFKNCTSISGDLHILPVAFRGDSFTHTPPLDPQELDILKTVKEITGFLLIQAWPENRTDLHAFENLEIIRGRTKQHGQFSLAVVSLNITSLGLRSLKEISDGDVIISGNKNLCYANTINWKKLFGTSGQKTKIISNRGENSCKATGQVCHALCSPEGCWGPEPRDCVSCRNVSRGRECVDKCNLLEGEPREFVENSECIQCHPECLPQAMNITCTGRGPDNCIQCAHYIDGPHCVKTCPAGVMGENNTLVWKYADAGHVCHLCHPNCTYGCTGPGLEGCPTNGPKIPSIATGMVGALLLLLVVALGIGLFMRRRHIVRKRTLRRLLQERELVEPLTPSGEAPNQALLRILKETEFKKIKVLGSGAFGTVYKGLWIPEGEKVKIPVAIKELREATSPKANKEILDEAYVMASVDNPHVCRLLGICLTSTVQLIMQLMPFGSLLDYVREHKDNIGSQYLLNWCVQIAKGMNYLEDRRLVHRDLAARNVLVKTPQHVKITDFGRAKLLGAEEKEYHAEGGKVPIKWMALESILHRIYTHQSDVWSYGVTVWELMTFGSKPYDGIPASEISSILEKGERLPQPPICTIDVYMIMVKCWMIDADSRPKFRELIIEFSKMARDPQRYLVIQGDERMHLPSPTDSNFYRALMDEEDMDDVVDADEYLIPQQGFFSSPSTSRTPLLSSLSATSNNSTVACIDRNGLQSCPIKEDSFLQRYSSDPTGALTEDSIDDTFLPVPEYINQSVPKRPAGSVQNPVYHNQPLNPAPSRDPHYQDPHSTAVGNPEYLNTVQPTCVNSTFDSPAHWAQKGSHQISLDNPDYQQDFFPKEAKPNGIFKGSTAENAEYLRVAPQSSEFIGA
Chain of EGFR Δ746-750 mutant (P00533 other isoform, or with tags, fused parts or gaps del 1-668/del 746-750 limits assumed): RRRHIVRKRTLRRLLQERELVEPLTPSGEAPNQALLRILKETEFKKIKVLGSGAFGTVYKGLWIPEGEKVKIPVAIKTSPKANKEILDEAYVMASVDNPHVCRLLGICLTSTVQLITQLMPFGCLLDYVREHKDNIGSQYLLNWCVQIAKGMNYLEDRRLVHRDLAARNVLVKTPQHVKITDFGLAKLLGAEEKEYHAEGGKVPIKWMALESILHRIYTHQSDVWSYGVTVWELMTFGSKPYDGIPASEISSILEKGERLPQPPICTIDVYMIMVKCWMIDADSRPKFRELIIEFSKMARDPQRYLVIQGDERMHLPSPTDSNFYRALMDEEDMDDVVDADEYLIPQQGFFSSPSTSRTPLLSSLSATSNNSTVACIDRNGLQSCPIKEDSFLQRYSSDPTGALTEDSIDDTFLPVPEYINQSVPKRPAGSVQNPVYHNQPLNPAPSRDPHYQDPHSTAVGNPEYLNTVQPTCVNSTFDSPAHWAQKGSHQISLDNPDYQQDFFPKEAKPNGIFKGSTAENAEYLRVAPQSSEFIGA

| IC50 [1] | IC50 (EGFR Δ746-750 mutant) | IC50 (EGFR (D770_N771insNPG)) | IC50 (EGFR WT) | IC50 (EGFR L858R mutant) | IC50 [2] | SMILES |
| --- | --- | --- | --- | --- | --- | --- |
| 31.3 nM | 34.6 nM | 55.4 nM | – | – | – | Cc1c2c(nn1[C@H]1CCN(C)C[C@@H]1O)OCCCOc1c(cnn1C)-c1ccc3[nH]nc(c3c1)/C=C/2 (racemic) [Example 83, (rac)-4-[(17E)-8,16-dimethyl-2,8,11,12-tetrahydro-10H,15H-3,5-etheno[1,5]dioxacyclopentadecino[10,11-c:15,14-c′:6,7-c″]tripyrazol-15-yl]-1-methylpiperidin-3-ol] |
| 101 nM | 221 nM | 304 nM | – | – | – | Cc1nn(C)c2c1/C=C/c1n[nH]c3ccc(cc13)-c1cnn(C)c1CN(C)C[C@H](C)O2 (single isomer, unassigned) [Example 97] |
| 0.31 nM | 0.13 nM | 0.18 nM | – | – | – | CCOc1nn(CCO)c2c1/C=C/c1n[nH]c3ccc(cc13)-c1cnn(C)c1O[C@H](C)[C@H]1CCCN1C2 (single isomer, unassigned) [compound 241] |
| – | 284 nM | 945 nM | 1170 nM | 349 nM | 27.2 nM | Cc1c2c(nn1C)OCCCOc1c(cnn1C)-c1ccc3[nH]nc(c3c1)/C=C/2 [Ex. 9, (17E)-8,15,16-trimethyl-2,11,12,15-tetrahydro-8H,10H-3,5-etheno[1,5]dioxacyclopentadecino[10,11-c:15,14-c′:6,7-c″]tripyrazole] |
| – | 74.3 nM | 713 nM | – | – | – | CCc1nn(C)c2c1/C=C/c1n[nH]c3ccc(cc13)-c1cnn(C)c1OCCCO2 [Ex. 10, (17E)-16-ethyl-8,14-dimethyl-2,11,12,14-tetrahydro-8H,10H-3,5-etheno[1,5]dioxacyclopentadecino[10,11-c:15,14-c′:6,7-c″]tripyrazole] |
| – | 132 nM | 521 nM | 523 nM | 49.2 nM | 48.4 nM | Cn1ncc2c1OCCCCOc1ccccc1/C=C/c1n[nH]c3ccc-2cc13 [Ex. 16, (11E)-1-methyl-18,19,20,21-tetrahydro-1H,8H-10,7,4-(ethan[1]yl[1,2]diylidene)pyrazolo[3,4-g][1,6,13,14]benzodioxadiazacyclononad ecine] |
| – | 755 nM | 1770 nM | > 1000 nM | > 1000 nM | 315 nM | Cc1c2c(nn1CCO)OCCCOc1c(cnn1C)-c1ccc3[nH]nc(c3c1)/C=C/2 [Ex. 24, 2-[(17E)-8,16-dimethyl-2,8,11,12-tetrahydro-10H,15H-3,5-etheno[1,5]dioxacyclopentadecino[10,11-c:15,14-c′:6,7-c″]tripyrazol-15-yl]ethan-1-ol] |
| – | 819 nM | > 1000 nM | > 1000 nM | 1000 nM | 578 nM | Cc1c2c(nn1CC(C)(C)O)OCCCOc1c(cnn1C)-c1ccc3[nH]nc(c3c1)/C=C/2 [Ex. 28, 1-[(17E)-8,16-dimethyl-2,8,11,12-tetrahydro-10H,15H-3,5-etheno[1,5]dioxacyclopentadecino[10,11-c:15,14-c′:6,7-c″ ]tripyrazol-15-yl]-2-methylpropan-2-ol] |
| – | 155 nM | 457 nM | 1260 nM | 242 nM | 37.3 nM | Cc1nn(CCN2CCCC2)c2c1/C=C/c1n[nH]c3ccc(cc13)-c1cnn(C)c1OCCCO2 [Ex. 32, (17E)-8,16-dimethyl-14-[2-(pyrrolidin-1-yl)ethyl]-2,11,12,14-tetrahydro-8H,10H-3,5-etheno[1,5]dioxacyclopentadecino[10,11-c:15,14-c′:6,7-c″ ]tripyrazole] |
| – | 176 nM | 1440 nM | – | – | – | Cc1ccc2c(n1)/C=C/c1n[nH]c3ccc(cc13)-c1cnn(C)c1O[C@@H](C)CCO2 [Ex. 39, (10S,18E)-8,10,16-trimethyl-2,8,11,12-tetrahydro-10H-3,5-ethenodipyrazolo[3′,4′:10,11;4″,3″:14,15] [1,5]dioxacyclopentadecino[7,6-b]pyridine] |
| – | – | – | – | – | 863 nM | CNC(=O)c1cnc2c(c1)/C=C/c1n[nH]c3ccc(cc13)-c1cnn(C)c1COCCO2 [Example 3, (18E)-N,8-dimethyl-8,9,11,12-tetrahydro-2H-3,5-ethenodipyrazolo[3′,4′:9,10;4″,3″:13,14] [1,4]dioxacyclopentadecino[5,6-b]pyridine-16-carboxamide] |
| – | 217 nM | 983 nM | 1300 nM | 268 nM | 36.8 nM | Cc1nn(CC(C)(C)O)c2c1/C=C/c1n[nH]c3ccc(cc13)-c1cnn(C)c1OCCCO2 [Example 30, 1-[(17E)-8,16-dimethyl-2,8,11,12-tetrahydro-10H,14H-3,5-etheno[1,5]dioxacyclopentadecino[10,11-c:15,14-c′:6,7-c″]tripyrazol-14-yl]-2-methylpropan-2-ol] |
| – | 58.7 nM | 731 nM | 927 nM | 67.7 nM | 4.93 nM | CC(=O)Cn1nc(C)c2c1OCCCOc1c(cnn1C)-c1ccc3[nH]nc(c3c1)/C=C/2 [Example 31, 1-[(17E)-8,16-dimethyl-2,8,11,12-tetrahydro-10H,14H-3,5-etheno[1,5]dioxacyclopentadecino[10,11-c:15,14-c′:6,7-c″]tripyrazol-14-yl]propan-2-one] |
| – | 154 nM | 191 nM | 326 nM | 114 nM | 40.9 nM | Cc1c2c(nn1CCN1CCCC1)OCCCOc1c(cnn1C)-c1ccc3[nH]nc(c3c1)/C=C/2 [Example 34, (17E)-8,16-dimethyl-15-[2-(pyrrolidin-1-yl)ethyl]-2,11,12,15-tetrahydro-8H,10H-3,5-etheno[1,5]dioxacyclopentadecino[10,11-c:15,14-c′:6,7-c″]tripyrazole] |
| 944 nM | 488 nM | > 1000 nM | – | – | – | Cc1nn(C)c2c1/C=C/c1n[nH]c3ccc(cc13)-c1c(C)nn(C)c1OCCN(C)C2 [Example 47, (17E)-6,8,12,14,16-pentamethyl-2,10,11,12,13,14-hexahydro-8H-3,5-ethenotripyrazolo[3,4-f:3′,4′-j:4″,3″- n][1,4]oxazacyclopentadecine] |
| 130 nM | 381 nM | 551 nM | – | – | – | Cc1c2c(nn1CCN1CCCC1)OCCOC(C)c1c(cnn1C)-c1ccc3[nH]nc(c3c1)/C=C/2 (stereo not drawn) [Example 84, (17E)-8,9,16-trimethyl-15-[2-(pyrrolidin-1-yl)ethyl]-2,8,9,11,12,15-hexahydro-3,5-etheno[1,4]dioxacyclopentadecino[11,10-c:15,14-c′:6,7-c″]tripyrazole] |
| 6.67 nM | 19.7 nM | 191 nM | – | – | – | Cc1c2c(nn1CCN1CCCC1)CN(C)C[C@H](C)Oc1c(cnn1C)-c1ccc3[nH]nc(c3c1)/C=C/2 [Example 89, (10S,17E)-8,10,12,16-tetramethyl-15-[2-(pyrrolidin-1-yl)ethyl]-2,10,11,12,13,15-hexahydro-8H-3,5-ethenotripyrazolo[3,4-f:3′,4′-j:4″,3″-n][1,4]oxazacyclopentadecine] |
| 40.3 nM | 55.5 nM | 304 nM | – | – | – | CCOc1nn(CCO)c2c1/C=C/c1n[nH]c3ccc(cc13)-c1cnn(C)c1OC1CCCN(C2)C1C (stereo not drawn) [Example 242, 2-[(19E)-18-ethoxy-8,21-dimethyl-2,10,11,12,13,15-hexahydro-3,5-etheno-10,14-methanotripyrazolo[3,4-h:3′,4′-l:4″,3″-p][1,6]oxazacycloheptadecin-16(8H)-yl]ethan-1-ol] |
